The source of these data is patent publication US20260116944A1, “NOVEL TRIPLE GLP-1/GIP/GLUCAGON RECEPTOR AGONIST AND A PHARMACEUTICAL COMPOSITION FOR PREVENTING OR TREATING OBESITY COMPRISING THE SAME” (HANMI PHARM. CO., LTD., priority 2022, published 2026).

*1 amine or outer side, *2 acyl side, *3 side chain or, on linkers, in order; H or OH if unused. Bridges are numbered along the chain shown (N, C = ends). Where no end group is shown, it is not given here. Side-chain parts run from the residue outwards. [ ]: non-standard residue; d: D form. The star is where a group is joined. C20 diacid = O=C(O)CCCCCCCCCCCCCCCCCCC(=O)*; γGlu = O=C(O)[C@H](CCC(=O)[*:2])N[*:1]; AEEA = NCCOCCOCC(=O)O; Aib = CC(C)(N)C(=O)O

A short description of the test: Weight loss effect in AMLN diet-induced obese mice. The test is classed as in vivo. Particulars: 351 ug/kg, Q2D, subcutaneously, 2 weeks, vs. excipient control, p<0.001 one-way ANOVA, FIG. 1. The procedure:
In order to confirm the weight loss effect of each of the three triple agonists of SEQ ID NO: 1, SEQ ID NO: 2, and SEQ ID NO: 4 prepared in the Example above, an AMLN (amylin) mouse model, known as an obesity model, was used. AMLN diet-induced mice were divided into an excipient control group and groups administered with three types of triple agonists (351 ug/kg, Q2D, subcutaneously), and the administration was repeated for 2 weeks.
After repeated administration for 2 weeks, the body weight was measured, and the change in body weight relative to the body weight immediately before administration (DO) was measured to evaluate weight loss effect.
Regarding “Y-Aib-QGTFTSDYSK(1)YLDEKRAKDFVQWLLDHHPSSGQPPPS (Y[Aib]QGTFTSDYSK([AEEA-AEEA-γGlu-C20 diacid])YLDEKRAKDFVQWLLDHHPSSGQPPPS-NH2; lactam 16-20; N-terminus assumed; SMILES CC(C)C[C@H](NC(=O)[C@H](Cc1ccc(O)cc1)NC(=O)[C@H](CCCCNC(=O)COCCOCCNC(=O)COCCOCCNC(=O)CC[C@H](NC(=O)CCCCCCCCCCCCCCCCCCC(=O)O)C(=O)O)NC(=O)[C@H](CO)NC(=O)[C@H](Cc1ccc(O)cc1)NC(=O)[C@H](CC(=O)O)NC(=O)[C@H](CO)NC(=O)[C@@H](NC(=O)[C@H](Cc1ccccc1)NC(=O)[C@@H](NC(=O)CNC(=O)[C@H](CCC(N)=O)NC(=O)C(C)(C)NC(=O)[C@@H](N)Cc1ccc(O)cc1)[C@@H](C)O)[C@@H](C)O)C(=O)N[C@@H](CC(=O)O)C(=O)N[C@H]1CCC(=O)NCCCC[C@@H](C(=O)N[C@@H](CC(=O)O)C(=O)N[C@@H](Cc2ccccc2)C(=O)N[C@H](C(=O)N[C@@H](CCC(N)=O)C(=O)N[C@@H](Cc2c[nH]c3ccccc23)C(=O)N[C@@H](CC(C)C)C(=O)N[C@@H](CC(C)C)C(=O)N[C@@H](CC(=O)O)C(=O)N[C@@H](Cc2c[nH]cn2)C(=O)N[C@@H](Cc2c[nH]cn2)C(=O)N2CCC[C@H]2C(=O)N[C@@H](CO)C(=O)N[C@@H](CO)C(=O)NCC(=O)N[C@@H](CCC(N)=O)C(=O)N2CCC[C@H]2C(=O)N2CCC[C@H]2C(=O)N2CCC[C@H]2C(=O)N[C@@H](CO)C(N)=O)C(C)C)NC(=O)[C@H](C)NC(=O)[C@H](CCCNC(=N)N)NC(=O)[C@H](CCCCN)NC1=O) [SEQ ID NO: 4, acylated triple agonist peptide, K(1) at position 12, lactam bridge E16-K20]”, the “weight loss efficacy (change in body weight relative to immediately before administration)” value is “significant weight loss efficacy”.

As to “Y-Aib-QGTFTSDYSK(1)YLDEKAAKEFVQWLLDHHPSSGQPPPS (Y[Aib]QGTFTSDYSK([AEEA-AEEA-γGlu-C20 diacid])YLDEKAAKEFVQWLLDHHPSSGQPPPS-NH2; lactam 16-20; N-terminus assumed; SMILES CC(C)C[C@H](NC(=O)[C@H](Cc1ccc(O)cc1)NC(=O)[C@H](CCCCNC(=O)COCCOCCNC(=O)COCCOCCNC(=O)CC[C@H](NC(=O)CCCCCCCCCCCCCCCCCCC(=O)O)C(=O)O)NC(=O)[C@H](CO)NC(=O)[C@H](Cc1ccc(O)cc1)NC(=O)[C@H](CC(=O)O)NC(=O)[C@H](CO)NC(=O)[C@@H](NC(=O)[C@H](Cc1ccccc1)NC(=O)[C@@H](NC(=O)CNC(=O)[C@H](CCC(N)=O)NC(=O)C(C)(C)NC(=O)[C@@H](N)Cc1ccc(O)cc1)[C@@H](C)O)[C@@H](C)O)C(=O)N[C@@H](CC(=O)O)C(=O)N[C@H]1CCC(=O)NCCCC[C@@H](C(=O)N[C@@H](CCC(=O)O)C(=O)N[C@@H](Cc2ccccc2)C(=O)N[C@H](C(=O)N[C@@H](CCC(N)=O)C(=O)N[C@@H](Cc2c[nH]c3ccccc23)C(=O)N[C@@H](CC(C)C)C(=O)N[C@@H](CC(C)C)C(=O)N[C@@H](CC(=O)O)C(=O)N[C@@H](Cc2c[nH]cn2)C(=O)N[C@@H](Cc2c[nH]cn2)C(=O)N2CCC[C@H]2C(=O)N[C@@H](CO)C(=O)N[C@@H](CO)C(=O)NCC(=O)N[C@@H](CCC(N)=O)C(=O)N2CCC[C@H]2C(=O)N2CCC[C@H]2C(=O)N2CCC[C@H]2C(=O)N[C@@H](CO)C(N)=O)C(C)C)NC(=O)[C@H](C)NC(=O)[C@H](C)NC(=O)[C@H](CCCCN)NC1=O) [SEQ ID NO: 1, acylated triple agonist peptide, K(1) at position 12, lactam bridge E16-K20, C-terminus amidated]”, the “weight loss efficacy (change in body weight relative to immediately before administration)” value is “significant weight loss efficacy”. The value for “Y-Aib-QGTFTSDYSK(1)YLDEKRAKEFVQWLLDHHPSSGQPPPS (Y[Aib]QGTFTSDYSK([AEEA-AEEA-γGlu-C20 diacid])YLDEKRAKEFVQWLLDHHPSSGQPPPS-NH2; lactam 16-20; N-terminus assumed; SMILES CC(C)C[C@H](NC(=O)[C@H](Cc1ccc(O)cc1)NC(=O)[C@H](CCCCNC(=O)COCCOCCNC(=O)COCCOCCNC(=O)CC[C@H](NC(=O)CCCCCCCCCCCCCCCCCCC(=O)O)C(=O)O)NC(=O)[C@H](CO)NC(=O)[C@H](Cc1ccc(O)cc1)NC(=O)[C@H](CC(=O)O)NC(=O)[C@H](CO)NC(=O)[C@@H](NC(=O)[C@H](Cc1ccccc1)NC(=O)[C@@H](NC(=O)CNC(=O)[C@H](CCC(N)=O)NC(=O)C(C)(C)NC(=O)[C@@H](N)Cc1ccc(O)cc1)[C@@H](C)O)[C@@H](C)O)C(=O)N[C@@H](CC(=O)O)C(=O)N[C@H]1CCC(=O)NCCCC[C@@H](C(=O)N[C@@H](CCC(=O)O)C(=O)N[C@@H](Cc2ccccc2)C(=O)N[C@H](C(=O)N[C@@H](CCC(N)=O)C(=O)N[C@@H](Cc2c[nH]c3ccccc23)C(=O)N[C@@H](CC(C)C)C(=O)N[C@@H](CC(C)C)C(=O)N[C@@H](CC(=O)O)C(=O)N[C@@H](Cc2c[nH]cn2)C(=O)N[C@@H](Cc2c[nH]cn2)C(=O)N2CCC[C@H]2C(=O)N[C@@H](CO)C(=O)N[C@@H](CO)C(=O)NCC(=O)N[C@@H](CCC(N)=O)C(=O)N2CCC[C@H]2C(=O)N2CCC[C@H]2C(=O)N2CCC[C@H]2C(=O)N[C@@H](CO)C(N)=O)C(C)C)NC(=O)[C@H](C)NC(=O)[C@H](CCCNC(=N)N)NC(=O)[C@H](CCCCN)NC1=O) [SEQ ID NO: 2, acylated triple agonist peptide, K(1) at position 12, lactam bridge E16-K20]” was “significant weight loss efficacy”.
